# Tests used:
# production of PGE2 = assay: In-vitro activity test: inhibition of PGE2 production in IL-1β-stimulated A549 cells; format: cell-based, human; settings: 18 hours
# Text: (§1) This test is used to evaluate capability to inhibit the production of PGE2 and selectivity with respect to the production of PGF2, for each of the compounds under examination.
# (§2) Cell line A549, human lung adenocarcinoma, which is particularly sensitive to stimulation with proinflammatory cytokines such as IL-1β, and, in response to that stimulation, particularly active in the production and release of two prostanoids: PGE2 and PGF2α (Thoren S., Jakobsson P. J. “Coordinate up- and down-regulation of glutathione-dependent prostaglandin E synthase and cyclooxygenase-2 in A549 cells. Inhibition by NS-398 and leukotriene C4”, Eur. J. Biochem. 2000, 267(21):6428-6434)) was used.
# (§3) The cells were stimulated with IL-1β (1 ng/ml) and at the same time treated with the compounds under test for 18 hours in an appropriate culture medium (DMEM—Dulbecco's Modified Eagles Medium) enriched with 5% bovine foetal serum and L-glutamine (4 mM final) in an incubator at 37° C. and with a CO2 concentration of 5%.
# (§4) After incubation the quantities of PGE2 and PGF2α produced and released into the supernatant were determined using an EIA kit (manufactured and marketed by Cayman Chemicals, Ann Arbor, Mich., USA).
# (§5) The results, shown in Table 3, are expressed as percentage inhibition of the production of PGE2 and PGF2α at a concentration of […].
# production of PGF2α = assay: In-vitro activity test: inhibition of PGF2α production in IL-1β-stimulated A549 cells; format: cell-based, human; settings: 18 hours
# Text: as §1, §2, §3, §4, §5
# [1] = system: pained behaviour induced by acetic acid in mice; assay: In-vivo activity test: acetic acid-induced stretching (nociceptive test of inflammatory origin) in mice; settings: female CD-1 mice; 30 mg/kg orally in methyl cellulose (MTC), 1 hour before acetic acid i.p.; mean±SD; vehicle MTC 58 ± 5
# Procedure: This test makes it possible to evaluate the activity of the compounds according to this invention in a nociceptive test of inflammatory origin. Compound 1 was used for this purpose in an experimental model which provokes pained behaviour induced by acetic acid in mice (Stock, J. L. et al., J. Clin. Inv. 2001, 107:325-331). Female CD-1 mice weighing 25-30 g were used for the test.
# The animals were treated orally with compound 1 (30 mg/kg) suspended in methyl cellulose (MTC). The control animals were treated with the vehicle (MTC) alone, orally.
# One hour after treatment acetic acid (0.7% v/v in physiological solution, 16 μl/g of body weight) was injected into the animals intraperitoneally to induce inflammatory pain and check the effects of the treatment on the nociceptive response.
# The number of stretches, which represents the evaluation parameter for the nociceptive response, was measured immediately after the administration of acetic acid and for the next 20 minutes.
# production of PGI2 = assay: Test on human primary endothelial cells (HUVEC): secretion of PGI2; format: cell-based
# Procedure: This test is used to evaluate the ability of the compounds in Table 2 to inhibit the production of PGI2.
# The absence of inhibitory activity on these prostanoids may ensure that the vasoprotective action of PGI2 is maintained and provides useful pharmacological information about the absence of adverse effects on the endothelium.
# Compound 1 was used in the test.
# The action of the compound under test was evaluated in HUVEC cells under basal and stimulation conditions (J. Immunol. 1989 Jun. 1; 142(11):3993-9).
# The results are shown in Table 6 and are expressed as percentage inhibition in comparison with control enzyme activity.
# Indomethacin was used as the reference compound.
# [2] = 10 μM, A549 cells stimulated with IL-1β (1 ng/ml), EIA kit
# [3] = A549 cells stimulated with IL-1β
# [4] = Homo sapiens, 10 μM, A549 cells stimulated with IL-1β (1 ng/ml), EIA kit
pIC50 PGE2 (production of PGE2; [3]),pIC50 PGF2α (production of PGF2α; [3]),SMILES,% inhibition at 10 μM PGE2 (production of PGE2; [2]) [%],% inhibition at 10 μM PGF2α (production of PGF2α; [2]) [%],also measured
,,"CCn1c2ccccc2c2cc(NC(=O)c3ccccc3OC)ccc21 [A, reference compound]",98,95,
,,"CCn1c2ccccc2c2cc(NC(=O)c3ccccc3)ccc21 [B, reference compound]",46,40,
,,"CCn1c2ccccc2c2cc(NC(=O)c3ccc(C)cc3)ccc21 [C, reference compound]",43,49,
5.7,4.1,CCn1c2ccccc2c2cc(NC(=O)c3ccccc3Cl)ccc21 [Compound 1],82,16,"No. stretches in 20 min [1]: 40 ± 5; % inhibition, test for the secretion of PGI2, Basal (HUVEC) (production of PGI2; 10 μM, basal conditions): 0%; % inhibition, test for the secretion of PGI2, Stimulated (HUVEC) (production of PGI2; 10 μM, stimulation conditions): 0%"
5.3,4.3,CCn1c2ccccc2c2cc(NC(=O)c3ccccc3C)ccc21 [Compound 2],83,44,
5.5,<4,CCn1c2ccccc2c2cc(NC(=O)c3ccccc3Br)ccc21 [Compound 3],81,0,
5.4,<4,CCn1c2ccccc2c2cc(NC(=O)c3ccccc3I)ccc21 [Compound 4],84,0,
,,CCn1c2ccccc2c2cc(NC(=O)c3ccccc3[N+](=O)[O-])ccc21 [Compound 5],27,0,
,,CCn1c2ccccc2c2cc(NC(=O)c3c(Cl)cccc3Cl)ccc21 [Compound 6],89,51,
,,CCn1c2ccccc2c2cc(NC(=O)c3cc([N+](=O)[O-])ccc3Cl)ccc21 [Compound 7],70,0,
,,CCn1c2ccccc2c2cc(NC(=O)c3cc(Cl)ccc3Cl)ccc21 [Compound 8],93,37,
,,"COc1ccc2c(c1)c(CC(=O)O)c(C)n2C(=O)c1ccc(Cl)cc1 [Indomethacin, reference compound]",,,"inhibition at 10 µM (production of PGE2; [4]): 100%; IC50 (production of PGE2; Homo sapiens, A549 cells stimulated with IL-1β, read-out: pIC50 PGE2 (converted)): 5.01 nM; inhibition at 10 µM (production of PGF2α; [4]): 100%; IC50 (production of PGF2α; Homo sapiens, A549 cells stimulated with IL-1β, read-out: pIC50 PGF2α (converted)): 2.51 nM; inhibition at 10 µM (production of PGI2; Homo sapiens, stimulation conditions, read-out: % inhibition, test for the secretion of PGI2, Stimulated (HUVEC)): 100%"
